Drawing on BindingDB's records for doi:10.1021/cb9002865 (Vanderbilt University, 2010), this text covers EC100 for six compounds.

Structures are written as SMILES. A value given as a limit tells only on which side of the number the result lay.

Receptor protein serine/threonine kinase, sequence (B3DJG0 whole entry): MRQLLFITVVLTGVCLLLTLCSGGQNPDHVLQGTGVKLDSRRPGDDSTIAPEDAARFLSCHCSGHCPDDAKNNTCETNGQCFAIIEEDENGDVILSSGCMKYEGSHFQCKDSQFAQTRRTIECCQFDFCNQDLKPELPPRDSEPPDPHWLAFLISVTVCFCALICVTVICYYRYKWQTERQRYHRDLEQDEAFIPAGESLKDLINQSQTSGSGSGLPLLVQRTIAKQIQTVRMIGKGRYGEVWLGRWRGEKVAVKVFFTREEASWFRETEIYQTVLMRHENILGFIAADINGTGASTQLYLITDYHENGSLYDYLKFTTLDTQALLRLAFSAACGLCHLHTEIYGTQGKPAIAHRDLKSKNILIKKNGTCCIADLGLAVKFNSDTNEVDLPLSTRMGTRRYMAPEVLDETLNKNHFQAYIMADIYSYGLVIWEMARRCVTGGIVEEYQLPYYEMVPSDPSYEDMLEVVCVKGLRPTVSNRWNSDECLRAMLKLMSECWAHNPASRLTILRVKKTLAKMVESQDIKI

The assay addresses Receptor protein serine/threonine kinase (Danio rerio, UniProt B3DJG0). Nature of the assay: Kinase assay Dorsalization.
`c1cc(-c2cnn3cc(-c4ccc(OCCN5CCOCC5)cc4)cnc23)ccn1` came in with an EC100 of 1000 nM.

`c1ccc2c(-c3cnn4cc(-c5ccc(OCCN6CCOCC6)cc5)cnc34)ccnc2c1` [4-(2-(4-(3-(quinolin-4-yl)pyrazolo[1,5-a]pyrimidin-6-yl)phenoxy)ethyl)morpholine] displayed an EC100 of 100 nM.

In the case of `CC(C)Oc1ccc(-c2cnc3c(-c4ccnc5ccccc45)cnn3c2)cc1` [4-(6-(4-isopropoxyphenyl)pyrazolo[1,5-a]pyrimidin-3-yl)quinoline], the EC100 is 200 nM.

Take `CN(C)CCCOc1ccc(-c2cnc3c(-c4ccnc5ccccc45)cnn3c2)cc1` [DMH3]: the EC100 was found to be 1000 nM.

`c1ccc2c(-c3cnn4cc(-c5ccc(N6CCNCC6)cc5)cnc34)ccnc2c1` [LDN-193189] registered an EC100 of 3000 nM.

With `COc1ccc(-c2cnc3c(-c4ccccc4)cnn3c2)cc1` [dorsomorphin (6LP)], the EC100 was more than 50000 nM.
